This series concerns CCRIS mutagenicity, Ames/micronucleus/aberration tests. Description: CCRIS mutagenicity studies.
The mark [1] stands for this setting: Test System: AMES SALMONELLA TYPHIMURIUM, Strain/Indicator: TA100, Metabolic Activation: NONE, Method: PREINCUBATION
Where [2] appears, read: Test System: AMES SALMONELLA TYPHIMURIUM, Strain/Indicator: TA100, Metabolic Activation: NONE, Method: STANDARD PLATE.
The mark [3] stands for this setting: Test System: AMES SALMONELLA TYPHIMURIUM, Strain/Indicator: TA98, Metabolic Activation: NONE, Method: STANDARD PLATE.

Active and inactive are the calls of the source. The rule behind the calls is not given here.

`O=[N+]([O-])c1ccc(Cl)cc1Cl`: the mutagenic call is, setting by setting: (End Point: IN VITRO CHROMOSOMAL ABERRATIONS, Test System: CHL CELLS, Metabolic Activation: RAT, LIVER, S-9, SODIUM PHENOBARBITAL AND 5,6-BENZOFLAVONE) “active; positive (structural changes); authors report equivocal results for ploidy chang”; (Test System: AMES SALMONELLA TYPHIMURIUM, Strain/Indicator: TA98, Metabolic Activation: NONE, Method: PREINCUBATION) “inactive; negative”; (Test System: AMES SALMONELLA TYPHIMURIUM, Strain/Indicator: TA98, Metabolic Activation: RAT, LIVER, S-9, KANECHLOR 500, Method: PREINCUBATION) “inactive; negative”; under setting [1], “active; positive”; under setting [2], “inactive; negative”; (Test System: AMES SALMONELLA TYPHIMURIUM, Strain/Indicator: TA100, Metabolic Activation: RAT LIVER S-9, PHENOBARBITAL AND BETA-NAPHTHOFLAVONE, Method: PREINCUBATION) “active; positive”. The mutagenic call (Test System: AMES SALMONELLA TYPHIMURIUM, Strain/Indicator: TA100, Metabolic Activation: RAT, LIVER, S-9, KANECHLOR 500, Method: PREINCUBATION) is “active; positive”; the mutagenic call (Test System: AMES SALMONELLA TYPHIMURIUM, Strain/Indicator: TA1535, Metabolic Activation: RAT LIVER S-9, PHENOBARBITAL AND BETA-NAPHTHOFLAVONE, Method: PREINCUBATION) is “inactive; negative”; the mutagenic call (Test System: AMES SALMONELLA TYPHIMURIUM, Strain/Indicator: TA1537, Metabolic Activation: RAT LIVER S-9, PHENOBARBITAL AND BETA-NAPHTHOFLAVONE, Method: PREINCUBATION) is “inactive; negative”; the mutagenic call (Test System: E.COLI, Strain/Indicator: WP2UVRA, Metabolic Activation: NONE, Method: PREINCUBATION) was “inactive; negative”; the mutagenic call (Test System: E.COLI, Strain/Indicator: WP2UVRA, Metabolic Activation: RAT LIVER S-9, PHENOBARBITAL AND BETA-NAPHTHOFLAVONE, Method: PREINCUBATION) is “inactive; negative”.
Regarding `O=C1C=C2c3cc4ccccc4cc3-c3cccc(c32)C1=O`, under “Test System: AMES SALMONELLA TYPHIMURIUM, Strain/Indicator: TA100, Metabolic Activation: RAT, LIVER, S-9, AROCLOR 1254, Method: STANDARD PLATE”, the mutagenic call is “active; positive”.
With `O=C(O)c1occ(-c2ccccc2)c1-c1ccccc1`, the mutagenic call is “inactive; negative” under setting [3] and “inactive; negative” under setting [2].
In the case of `c1ccc([As+](c2ccccc2)(c2ccccc2)c2ccccc2)cc1`, where the note is “Test System: Mouse lymphoma, Strain/Indicator: L5178Y (TK+/TK-), Metabolic Activation: None, Method: Microwell”, the mutagenic call is “inactive; negative”.
`NNc1ccc(C(=O)O)cc1`: the mutagenic call (Test System: AMES SALMONELLA TYPHIMURIUM, Strain/Indicator: TA104, Metabolic Activation: MUSHROOM TYROSINASE, Method: PREINCUBATION) is “inactive; negative”; the mutagenic call (Test System: AMES SALMONELLA TYPHIMURIUM, Strain/Indicator: TA104, Metabolic Activation: NONE, Method: PREINCUBATION) is “inactive; negative”; the mutagenic call (Test System: AMES SALMONELLA TYPHIMURIUM, Strain/Indicator: TA104, Metabolic Activation: RAT, LIVER, CYTOSOL, AROCLOR 1254, NADPH, Method: PREINCUBATION) was “inactive; negative”.
For the compound `COc1ccc2c(c1)C(=O)c1c(OC)c(OC)cc3ccnc-2c13`, the mutagenic call by setting is: (Test System: AMES SALMONELLA TYPHIMURIUM, Strain/Indicator: TA98, Metabolic Activation: RAT, LIVER, S-9, PHENOBARBITAL AND BETA-NAPHTHOFLAVONE, Method: PREINCUBATION) “active; positive”; (Test System: AMES SALMONELLA TYPHIMURIUM, Strain/Indicator: TA100, Metabolic Activation: RAT, LIVER, S-9, PHENOBARBITAL AND BETA-NAPHTHOFLAVONE, Method: PREINCUBATION) “active; positive”.
Take `ClC1OC1CBr` (centres undefined): the mutagenic call under setting [1] is “active; positive”.
Regarding `C=C(CC(=O)OCC)C(=O)OCC`, under “Test System: Chinese hamster ovary cells, Metabolic Activation: None, Method: CHO/HGPRT assay”, the mutagenic call was “inactive; negative”.
Regarding `CC(=O)Nc1ccc(-c2ccc(NC(C)=O)cc2)cc1`, the mutagenic call was “active; positive” (Test System: AMES SALMONELLA TYPHIMURIUM, Strain/Indicator: TA1538, Metabolic Activation: GUINEA PIG, LIVER, HEPATOCYTES, Method: PREINCUBATION); “active; positive” (Test System: AMES SALMONELLA TYPHIMURIUM, Strain/Indicator: TA1538, Metabolic Activation: GUINEA PIG, LIVER, S-9, ACETYL-COA (0.1 OR 1 MILLIMOLAR), Method: PREINCUBATION); “active; positive” (Test System: AMES SALMONELLA TYPHIMURIUM, Strain/Indicator: TA1538, Metabolic Activation: GUINEA PIG, LIVER, S-9, Method: PREINCUBATION); “active; positive” (Test System: AMES SALMONELLA TYPHIMURIUM, Strain/Indicator: TA1538, Metabolic Activation: HAMSTER, LIVER, HEPATOCYTES, Method: PREINCUBATION); “active; positive” (Test System: AMES SALMONELLA TYPHIMURIUM, Strain/Indicator: TA1538, Metabolic Activation: HAMSTER, LIVER, S-9, ACETYL-COA (0.1 OR 1 MILLIMOLAR), Method: PREINCUBATION); “active; positive” (Test System: AMES SALMONELLA TYPHIMURIUM, Strain/Indicator: TA1538, Metabolic Activation: HAMSTER, LIVER, S-9, Method: PREINCUBATION). The mutagenic call was “active; positive” (Test System: AMES SALMONELLA TYPHIMURIUM, Strain/Indicator: TA1538, Metabolic Activation: RAT, LIVER, HEPATOCYTES, Method: PREINCUBATION); “active; positive” (Test System: AMES SALMONELLA TYPHIMURIUM, Strain/Indicator: TA1538, Metabolic Activation: RAT, LIVER, S-9, ACETYL-COA (0.1 OR 1 MILLIMOLAR), Method: PREINCUBATION); “active; positive” (Test System: AMES SALMONELLA TYPHIMURIUM, Strain/Indicator: TA1538, Metabolic Activation: RAT, LIVER, S-9, Method: PREINCUBATION); “inactive; negative” (Test System: Ames Salmonella typhimurium, Strain/Indicator: TA102, Metabolic Activation: None, Method: Preincubation); “inactive; negative” (Test System: Ames Salmonella typhimurium, Strain/Indicator: TA102, Metabolic Activation: Rat, liver, S-9, Aroclor 1254, 4%, Method: Preincubation).
Regarding `CN(C)c1ccc(C(c2ccccc2)c2ccc(N(C)C)cc2)cc1`, the mutagenic call runs as follows: (End Point: IN VIVO MICRONUCLEUS, Test System: PERIPHERAL BLOOD ERYTHROCYTES, Species: MOUSE, Strain/Sex: BIG BLUE B6C3F1/FEMALE, Route: DIET) “inactive; negative”; (Test System: AMES SALMONELLA TYPHIMURIUM, Strain/Indicator: TA97A, Metabolic Activation: NONE, Method: STANDARD PLATE) “inactive; negative”; (Test System: AMES SALMONELLA TYPHIMURIUM, Strain/Indicator: TA97A, Metabolic Activation: RAT LIVER S-9, 3-METHYLCHOLANTHRENE, PHENOBARBITAL, Method: STANDARD PLATE) “inactive; negative”; under setting [3], “inactive; negative”; (Test System: AMES SALMONELLA TYPHIMURIUM, Strain/Indicator: TA98, Metabolic Activation: RAT LIVER S-9, 3-METHYLCHOLANTHRENE, PHENOBARBITAL, Method: STANDARD PLATE) “inactive; negative”; under setting [2], “inactive; negative”. The mutagenic call is, setting by setting: (Test System: AMES SALMONELLA TYPHIMURIUM, Strain/Indicator: TA100, Metabolic Activation: RAT LIVER S-9, 3-METHYLCHOLANTHRENE, PHENOBARBITAL, Method: STANDARD PLATE) “inactive; negative”; (Test System: AMES SALMONELLA TYPHIMURIUM, Strain/Indicator: TA102, Metabolic Activation: NONE, Method: STANDARD PLATE) “inactive; negative”; (Test System: AMES SALMONELLA TYPHIMURIUM, Strain/Indicator: TA102, Metabolic Activation: RAT LIVER S-9, 3-METHYLCHOLANTHRENE, PHENOBARBITAL, Method: STANDARD PLATE) “inactive; negative”; (Test System: CHO/HGPRT, Strain/Indicator: CHO-K1, Metabolic Activation: NONE, Method: STANDARD PLATE) “inactive; negative”; (Test System: CHO/HGPRT, Strain/Indicator: CHO-K1, Metabolic Activation: RAT LIVER S-9, 3-METHYLCHOLANTHRENE, PHENOBARBITAL, Method: STANDARD PLATE) “inactive; negative”.
Turning to `C1CN1c1nc(N2CC2)nc(N2CC2)n1`, the mutagenic call under setting [3] is “active; positive”; the mutagenic call under setting [2] is “active; positive”; the mutagenic call (Test System: CHINESE HAMSTER V-79, Strain/Indicator: V-79/6-THIOGUANINE, Metabolic Activation: NONE, Method: FLASK ASSAY) is “active; positive”; the mutagenic call (Test System: E. COLI, Strain/Indicator: WP2 (HCR), Metabolic Activation: NONE, Method: STANDARD PLATE) was “active; positive”.
Turning to `O=C1C=CC(=O)C(c2ccc(Cl)cc2)=C1`, where the note is “End Point: In vitro micronucleus, Test System: Chinese hamster lung V79 cells, Metabolic Activation: None”, the mutagenic call was “active; positive”.
